The text below walks through data of patent US20050176813A1, “Novel chalcone derivatives and uses thereof” (priority 2002, published 2005).

Sequence of Kv1.3 (P22001 whole entry): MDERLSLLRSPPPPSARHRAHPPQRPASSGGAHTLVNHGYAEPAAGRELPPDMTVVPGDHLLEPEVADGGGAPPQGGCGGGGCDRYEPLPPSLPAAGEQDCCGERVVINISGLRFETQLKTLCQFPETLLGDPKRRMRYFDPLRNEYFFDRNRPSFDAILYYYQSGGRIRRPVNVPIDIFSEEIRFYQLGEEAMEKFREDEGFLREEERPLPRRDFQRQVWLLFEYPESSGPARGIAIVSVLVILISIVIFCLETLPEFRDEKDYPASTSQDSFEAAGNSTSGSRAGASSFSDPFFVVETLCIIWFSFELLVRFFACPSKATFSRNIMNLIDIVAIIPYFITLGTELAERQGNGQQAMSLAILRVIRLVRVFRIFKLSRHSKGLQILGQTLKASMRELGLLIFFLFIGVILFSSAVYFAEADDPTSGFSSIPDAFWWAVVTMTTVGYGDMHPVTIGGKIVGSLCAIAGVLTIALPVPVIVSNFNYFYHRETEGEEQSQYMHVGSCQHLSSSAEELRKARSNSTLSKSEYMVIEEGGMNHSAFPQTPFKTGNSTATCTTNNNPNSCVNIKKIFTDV

The first data set addresses Kv1.3 (Homo sapiens, UniProt P22001). As to the kind of experiment: Kv1.3 channel block, estimated Kd (Table 1). Format: binding. Particulars: Kv1.3.
Take `COc1c(C(=O)/C=C/c2ccccc2C(F)(F)F)c(O)c(OC)c2occc12` [Example 31]: the “Block phasic or not” value is recorded as “not phasic”.
With `COc1c(C(=O)/C=C/c2ccccc2Cl)c(O)c(OC)c2occc12` [Example 7], the “Block phasic or not” value was “not phasic”.
For `COc1c(C(=O)/C=C/c2ccncc2)c(O)c(OC)c2occc12` [Example 49], the “Block phasic or not” value is listed as “not phasic”.
For `COc1c(C(=O)/C=C/c2cccc(C(F)(F)F)c2)c(O)c(OC)c2occc12` [Example 32], the “Block phasic or not” value is “not phasic”.
For the compound `COc1c(C(=O)/C=C/c2ccc(NC(C)=O)cc2)c(O)c(OC)c2occc12` [Example 6], the “Block phasic or not” value is “not phasic”.
Same read-out and setting: then `CCN(CC)c1ccc(/C=C/C(=O)c2c(O)c(OC)c3occc3c2OC)cc1` [Example 13], with “not phasic”; and `COc1c(C(=O)/C=C/c2cccc(C)n2)c(O)c(OC)c2occc12` [Example 50], with “not phasic”.
With `COc1c(C(=O)/C=C/c2ccc(C(C)C)cc2)c(O)c(OC)c2occc12` [Example 20], the “Block phasic or not” value was “not phasic”.
Still for that read-out and setting: to `COc1c(C(=O)/C=C/c2ccccc2C)c(O)c(OC)c2occc12` [Example 21] belongs “not phasic”; to `COc1c(C(=O)/C=C/c2cccc(C#N)c2)c(O)c(OC)c2occc12` [Example 10], “not phasic”; to `COc1c(C(=O)/C=C/c2cccc(Cl)c2)c(O)c(OC)c2occc12` [Example 8], “not phasic”.
`CCCOc1ccc(/C=C/C(=O)c2c(O)c(OC)c3occc3c2OC)cc1` [Example 4]: the “Block phasic or not” value is “not phasic”.
Take `COc1c(C(=O)/C=C/c2ccc(-c3ccccc3)cc2)c(O)c(OC)c2occc12` [Example 5]: the “Block phasic or not” value is recorded as “not phasic”.
Same read-out and setting: then `COc1c(C(=O)/C=C/c2ccc(C#N)cc2)c(O)c(OC)c2occc12` [Example 11], with “not phasic”; and `COc1c(C(=O)/C=C/C=C/c2ccc(N(C)C)cc2)c(O)c(OC)c2occc12` [Example 44], with “not phasic”; and `COc1c(C(=O)/C=C/c2ccc(Cl)cc2)c(O)c(OC)c2occc12` [Example 9], with “not phasic”.

Staying with this data set, now noted: Kv1.3, at 5 μM.
On to `COc1c(C(=O)/C=C/c2cccc([N+](=O)[O-])c2)c(O)c(OC)c2occc12` [Example 28], for which the block is 5-10% block at 5 μM.

Still in this data set, the particulars now being: Kv1.3, end; read-out: Est. Kd, Kd end.
Regarding `COc1c(C(=O)/C=C/c2cccnc2)c(O)c(OC)c2occc12` [Example 48], the Kd is 9 µM.
On to `COc1c(C(=O)/C=C/c2ccccc2[N+](=O)[O-])c(O)c(OC)c2occc12` [Example 27], for which the Kd was 5 µM.
With `COc1ccccc1/C=C/C(=O)c1c(O)c(OC)c2occc2c1OC` [Example 25], the equilibrium dissociation constant (Kd) is 1 µM.
The same measure, in the same setting: then `COc1c(C(=O)/C=C/c2cccc(F)c2)c(O)c(OC)c2occc12` [Example 16], with 4 µM.
On to `COc1c(C(=O)/C=C/c2ccc(N(C)C)cc2)c(O)c(OC)c2occc12` [Example 42], for which the dissociation constant (Kd) was 5 µM.
Still for that read-out and setting: then `COc1c(C(=O)/C=C/c2sccc2C)c(O)c(OC)c2occc12` [Example 56], with 6 µM; and `COc1c(C(=O)/C=C/c2ccccc2O)c(O)c(OC)c2occc12` [Example 43], with 8 µM; and `COc1c(C(=O)/C=C/c2c(F)c(F)c(F)c(F)c2F)c(O)c(OC)c2occc12` [Example 30], with 3.5 µM.
Regarding `COc1c(C(=O)/C=C/c2ccccc2F)c(O)c(OC)c2occc12` [Example 15], the dissociation constant (Kd) was 12 µM.

Staying with this data set, now noted: Kv1.3, peak; read-out: Est. Kd, Kd peak.
Regarding `COc1c(C(=O)/C=C/c2ccccc2C(F)(F)F)c(O)c(OC)c2occc12` [Example 31], the Kd is 40 µM.
For `COc1c(C(=O)/C=C/c2cccnc2)c(O)c(OC)c2occc12` [Example 48], the Kd was 20 µM.
On to `COc1c(C(=O)/C=C/c2ccccc2Cl)c(O)c(OC)c2occc12` [Example 7], for which the Kd is 12 µM.
With `COc1c(C(=O)/C=C/c2ccncc2)c(O)c(OC)c2occc12` [Example 49], the Kd was 20 µM.
Same read-out and setting: to `COc1c(C(=O)/C=C/c2ccccc2[N+](=O)[O-])c(O)c(OC)c2occc12` [Example 27] belongs 15 µM.
The same measure, in the same setting: then `COc1ccccc1/C=C/C(=O)c1c(O)c(OC)c2occc2c1OC` [Example 25], with 5 µM.
Consider `COc1c(C(=O)/C=C/c2cccc(F)c2)c(O)c(OC)c2occc12` [Example 16], for which the Kd is 35 µM.
On to `COc1c(C(=O)/C=C/c2cccc(C(F)(F)F)c2)c(O)c(OC)c2occc12` [Example 32], for which the Kd is 40 µM.
The same measure, in the same setting: then `COc1c(C(=O)/C=C/c2ccc(N(C)C)cc2)c(O)c(OC)c2occc12` [Example 42], with 14 µM.
On the same count and under the same terms, to `COc1c(C(=O)/C=C/c2ccc(NC(C)=O)cc2)c(O)c(OC)c2occc12` [Example 6] belongs 35 µM.
Still for that read-out and setting: to `CCN(CC)c1ccc(/C=C/C(=O)c2c(O)c(OC)c3occc3c2OC)cc1` [Example 13] belongs 18 µM.
Consider `COc1c(C(=O)/C=C/c2sccc2C)c(O)c(OC)c2occc12` [Example 56], for which the Kd was 25 µM.
As for `COc1c(C(=O)/C=C/c2ccccc2O)c(O)c(OC)c2occc12` [Example 43], the Kd is 16 µM.
For the compound `COc1c(C(=O)/C=C/c2cccc(C)n2)c(O)c(OC)c2occc12` [Example 50], the Kd was 12 µM.
Same read-out and setting: then `COc1c(C(=O)/C=C/c2c(F)c(F)c(F)c(F)c2F)c(O)c(OC)c2occc12` [Example 30], with 5 µM.
On the same count and under the same terms, to `COc1c(C(=O)/C=C/c2ccc(C(C)C)cc2)c(O)c(OC)c2occc12` [Example 20] belongs 3 µM.
On to `COc1c(C(=O)/C=C/c2ccccc2C)c(O)c(OC)c2occc12` [Example 21], for which the Kd was 2 µM.
Same read-out and setting: to `COc1c(C(=O)/C=C/c2cccc(C#N)c2)c(O)c(OC)c2occc12` [Example 10] belongs 20 µM; to `COc1c(C(=O)/C=C/c2cccc(Cl)c2)c(O)c(OC)c2occc12` [Example 8], 15 µM; to `COc1c(C(=O)/C=C/c2ccccc2F)c(O)c(OC)c2occc12` [Example 15], 90 µM.
In the case of `CCCOc1ccc(/C=C/C(=O)c2c(O)c(OC)c3occc3c2OC)cc1` [Example 4], the dissociation constant Kd was 45 µM.
As for `COc1c(C(=O)/C=C/c2ccc(-c3ccccc3)cc2)c(O)c(OC)c2occc12` [Example 5], the Kd was 30 µM.
Turning to `COc1c(C(=O)/C=C/c2ccc(C#N)cc2)c(O)c(OC)c2occc12` [Example 11], the Kd is 12 µM.
Still for that read-out and setting: to `COc1c(C(=O)/C=C/C=C/c2ccc(N(C)C)cc2)c(O)c(OC)c2occc12` [Example 44] belongs 22 µM; to `COc1c(C(=O)/C=C/c2ccc(Cl)cc2)c(O)c(OC)c2occc12` [Example 9], 7 µM.

System in a further data set: not given
Test: not given
Conditions: not given
For the compound `COc1c(C(=O)/C=C/c2ccccc2C(F)(F)F)c(O)c(OC)c2occc12` [Example 31], the melting point lay within 150 to 151 °C.
The compound `COc1c(C(=O)/C=C/c2ccccc2Cl)c(O)c(OC)c2occc12` [Example 7] had a melting point of 160 to 161 °C.
Regarding `COc1c(C(=O)/C=C/c2ccccc2[N+](=O)[O-])c(O)c(OC)c2occc12` [Example 27], the melting point was 131 to 132 °C.
`COc1ccccc1/C=C/C(=O)c1c(O)c(OC)c2occc2c1OC` [Example 25] displayed a melting point of 117 to 118 °C.
Still for that read-out and setting: then `COc1c(C(=O)/C=C/c2cccc(F)c2)c(O)c(OC)c2occc12` [Example 16], with 121 to 123 °C; and `COc1c(C(=O)/C=C/c2ccc(NC(C)=O)cc2)c(O)c(OC)c2occc12` [Example 6], with 180 to 181 °C.
Same read-out and setting: then `COc1c(C(=O)/C=C/c2cccc(C)n2)c(O)c(OC)c2occc12` [Example 50], with 86 to 87 °C; and `COc1c(C(=O)/C=C/c2c(F)c(F)c(F)c(F)c2F)c(O)c(OC)c2occc12` [Example 30], with 112 to 114 °C; and `COc1c(C(=O)/C=C/c2cccc(C#N)c2)c(O)c(OC)c2occc12` [Example 10], with 182 to 183 °C.
In the case of `CCCOc1ccc(/C=C/C(=O)c2c(O)c(OC)c3occc3c2OC)cc1` [Example 4], the melting point is 74 to 75 °C.
The same measure, in the same setting: then `COc1c(C(=O)/C=C/c2ccc(-c3ccccc3)cc2)c(O)c(OC)c2occc12` [Example 5], with 122 to 124 °C; and `COc1c(C(=O)/C=C/c2ccc(C#N)cc2)c(O)c(OC)c2occc12` [Example 11], with 196 to 198 °C; and `COc1c(C(=O)/C=C/c2cccc([N+](=O)[O-])c2)c(O)c(OC)c2occc12` [Example 28], with 97 to 98 °C.

For orientation: Kd means the free concentration of one partner at which half of the binding sites on the other are occupied at equilibrium, for simple one-to-one binding. In general, melting point refers to the temperature, or range, at which the solid turns liquid.
